Legend:
[1] = target: T1, Muscarinic acetylcholine receptor M1 (Homo sapiens) (UniProt P11229); assay: Agonist activity at human SP/Myc epitope-tagged muscarinic M1 receptor expressed in HEK293T cells assessed as RLuc8-fused Galphaq activation after 2 mins by BRET assay relative to carbachol; type: cell-based; settings: HEK-293T
T1 sequence (whole entry): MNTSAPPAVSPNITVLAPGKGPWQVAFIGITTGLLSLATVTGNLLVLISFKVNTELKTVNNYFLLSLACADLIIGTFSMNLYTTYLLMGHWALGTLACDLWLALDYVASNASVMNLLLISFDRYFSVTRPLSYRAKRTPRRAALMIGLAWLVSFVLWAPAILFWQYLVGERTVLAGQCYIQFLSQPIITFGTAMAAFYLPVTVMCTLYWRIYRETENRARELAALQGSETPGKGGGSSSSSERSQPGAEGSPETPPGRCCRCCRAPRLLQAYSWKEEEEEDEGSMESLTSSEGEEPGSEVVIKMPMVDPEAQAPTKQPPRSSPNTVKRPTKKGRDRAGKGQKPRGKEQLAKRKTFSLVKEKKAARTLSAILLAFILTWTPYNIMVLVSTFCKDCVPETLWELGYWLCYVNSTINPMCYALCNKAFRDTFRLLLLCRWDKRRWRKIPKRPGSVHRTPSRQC

[2] = target: T1, Muscarinic acetylcholine receptor M1 (Homo sapiens); assay: (§1) Antagonist activity at human SP/Myc epitope-tagged muscarinic M1 receptor expressed in HEK293T cells assessed as inhibition of carbachol-induced RLuc8-fused Galphaq activation preincubated for 15 mins followed by carbachol induction measured after 2 mins by BRET assay; type: cell-based; settings: HEK-293T
[3] = target: T2, Muscarinic acetylcholine receptor M1 (Homo sapiens, UniProt P11229); assay: as §1; type: cell-based, HEK-293T
T2 sequence (P11229 whole entry): T1 sequence (whole entry)

[4] = target: T3, Muscarinic acetylcholine receptor M4 (Homo sapiens, UniProt P08173); assay: (§2) Antagonist activity at human SP/Myc epitope-tagged muscarinic M4 receptor expressed in HEK293T cells assessed as inhibition of carbachol-induced mVenus-fused beta-arrestin2 recruitment preincubated for 15 mins followed by carbachol induction measured after 2 mins by BRET assay; type: cell-based, HEK-293T
T3 sequence (P08173 whole entry): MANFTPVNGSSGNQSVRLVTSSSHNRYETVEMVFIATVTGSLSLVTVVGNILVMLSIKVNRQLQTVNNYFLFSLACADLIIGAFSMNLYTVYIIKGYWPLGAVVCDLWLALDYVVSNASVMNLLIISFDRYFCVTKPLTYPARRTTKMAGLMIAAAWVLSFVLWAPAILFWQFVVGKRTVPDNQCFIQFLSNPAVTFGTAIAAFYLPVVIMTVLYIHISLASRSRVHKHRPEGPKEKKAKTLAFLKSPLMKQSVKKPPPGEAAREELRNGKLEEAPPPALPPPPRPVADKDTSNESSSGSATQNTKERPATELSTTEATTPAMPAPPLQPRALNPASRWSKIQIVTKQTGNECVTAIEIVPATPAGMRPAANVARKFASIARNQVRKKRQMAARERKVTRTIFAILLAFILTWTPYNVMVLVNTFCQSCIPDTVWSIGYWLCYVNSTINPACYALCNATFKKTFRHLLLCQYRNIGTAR

[5] = target: T4, Muscarinic acetylcholine receptor M4 (Homo sapiens) (UniProt P08173); assay: as §2; type: cell-based; settings: HEK-293T
T4 sequence (whole entry): T3 sequence (P08173 whole entry)

[6] = target: T2, Muscarinic acetylcholine receptor M1; assay: Displacement of [3H]NMS from human muscarinic M1 receptor expressed in CHO cell membranes after 2 hrs by liquid scintillation counting method
[7] = target: T5, Alpha-1A adrenergic receptor (Homo sapiens, UniProt P35348); assay: Displacement of [3H]prazosin from human recombinant alpha-1A adrenergic receptor expressed in CHO cell membranes after 30 mins by liquid scintillation counting method
T5 sequence (P35348 whole entry): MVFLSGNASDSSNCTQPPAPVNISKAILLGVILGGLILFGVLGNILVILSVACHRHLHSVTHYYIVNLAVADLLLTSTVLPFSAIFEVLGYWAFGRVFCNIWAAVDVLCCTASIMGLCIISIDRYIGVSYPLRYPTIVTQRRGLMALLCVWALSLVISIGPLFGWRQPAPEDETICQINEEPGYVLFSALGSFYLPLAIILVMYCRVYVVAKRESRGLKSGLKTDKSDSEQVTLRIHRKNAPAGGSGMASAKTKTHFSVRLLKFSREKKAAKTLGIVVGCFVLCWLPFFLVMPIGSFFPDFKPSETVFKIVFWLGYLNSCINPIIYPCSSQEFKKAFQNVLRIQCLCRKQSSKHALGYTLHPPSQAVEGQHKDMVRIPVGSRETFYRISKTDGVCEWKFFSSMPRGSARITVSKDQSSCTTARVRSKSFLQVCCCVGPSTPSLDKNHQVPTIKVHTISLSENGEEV

[8] = target: D(3) dopamine receptor (Homo sapiens, UniProt P35462); assay: Displacement of [3H]N-methylspiperone from human dopamine D3 receptor expressed in HEK293 cell membranes after 1 hr by scintillation counting method
Chain of D(3) dopamine receptor (P35462 whole entry): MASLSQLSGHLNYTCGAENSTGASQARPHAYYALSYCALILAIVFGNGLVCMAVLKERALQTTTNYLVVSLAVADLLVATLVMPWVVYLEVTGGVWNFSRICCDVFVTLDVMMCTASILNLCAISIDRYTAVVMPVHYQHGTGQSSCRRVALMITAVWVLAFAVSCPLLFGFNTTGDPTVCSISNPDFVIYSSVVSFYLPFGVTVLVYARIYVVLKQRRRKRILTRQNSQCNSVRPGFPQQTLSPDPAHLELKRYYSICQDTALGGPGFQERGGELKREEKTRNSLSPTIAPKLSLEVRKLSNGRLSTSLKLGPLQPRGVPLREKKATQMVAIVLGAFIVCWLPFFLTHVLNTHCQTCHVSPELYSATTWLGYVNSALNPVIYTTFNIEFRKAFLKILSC

[9] = Fraction unbound in mouse brain at 5 uM by equilibrium dialysis method; type: ADME, tissue-based
[10] = Fraction unbound in human plasma at 0.5 uM by equilibrium dialysis method; type: ADME, cell-free
[11] = target: T1, Muscarinic acetylcholine receptor M1 (Homo sapiens); assay: (§3) Antagonist activity at human SP/Myc epitope-tagged muscarinic M1 receptor expressed in HEK293T cells assessed as inhibition of carbachol-induced mVenus-fused beta-arrestin2 recruitment preincubated for 15 mins followed by carbachol induction measured after 2 mins by BRET assay; type: cell-based; settings: HEK-293T
[12] = target: T2, Muscarinic acetylcholine receptor M1; assay: as §3; type: cell-based, HEK-293T
[13] = AUClast in CD1 mouse plasma at 3 mg/kg, sc by UPLC-MS analysis; type: ADME, organism-based; design: dose 3 mg/kg, route subcutaneous, time 0 - last
[14] = Tmax in CD1 mouse brain at 3 mg/kg, sc by UPLC-MS analysis; type: ADME, organism-based
[15] = AUClast in CD1 mouse brain at 3 mg/kg, sc by UPLC-MS analysis; type: ADME, organism-based; design: dose 3 mg/kg, time 0 - last, route subcutaneous
[16] = tested on: Plasma; assay: fAUClast in CD1 mouse plasma at 3 mg/kg, sc by UPLC-MS analysis; type: ADME, organism-based; settings: in vivo
[17] = Half life in CD1 mouse brain at 3 mg/kg, sc by UPLC-MS analysis; type: ADME, organism-based
[18] = Cmax in CD1 mouse brain at 3 mg/kg, sc after 0.25 hrs by UPLC-MS analysis; type: ADME, organism-based; design: dose 3 mg/kg, route subcutaneous
[19] = Ratio of AUC in CD1 mouse brain to AUC in CD1 mouse plasma at 3 mg/kg, sc; type: ADME, organism-based; settings: read-out: Ratio AUC
[20] = Tmax in CD1 mouse plasma at 3 mg/kg, sc by UPLC-MS analysis; type: ADME, organism-based
[21] = Half life in CD1 mouse plasma at 3 mg/kg, sc by UPLC-MS analysis; type: ADME, organism-based
[22] = Ratio of fAUC in CD1 mouse brain to fAUC in CD1 mouse plasma at 3 mg/kg, sc; type: ADME, organism-based; settings: read-out: K(p,uu,brain)
[23] = tested on: Brain; assay: fAUClast in CD1 mouse brain at 3 mg/kg, sc by UPLC-MS analysis; type: ADME, organism-based; settings: in vivo

`O=C1CCc2ccccc2N1CCCN1CCC(Cc2ccccc2)CC1` gave an Emax [1] of 25%, an Imax [2] of 44% and an IC50 [3] of 2630 nM. The IC50 [4] was 1230 nM, the Imax [5] was 72% and the Ki [6] was 363 nM. It also gave a Ki [7] of 257 nM, a Ki [8] of 1820 nM and a fraction unbound at 5 µM [9] of 0.051. The fraction unbound at 0.5 µM [10] was 0.057, the Imax [11] was 71% and the IC50 [12] was 1200 nM.

In the case of `O=C1CCc2ccccc2N1CCCN1CCN(c2ccccc2)CC1`, the Emax [1] is reported as 42%, the AUC(0-t) [13] is reported as 518 ng·h/mL and the Tmax [14] is reported as 15 min. The AUC(0-t) [15] was 2380 ng·h/mL, the fAUClast [16] was 50.5 ng·h/mL and the half-life [17] was 55.8 min. It also gave a Cmax [18] of 2050 ng/g, a Kp [19] of 4.35 and an IC50 [4] of 12000 nM. For the same molecule, the Imax [5] was 74%, the Ki [6] was 4270 nM and the Ki [7] was 53.7 nM. For the same molecule, the Ki [8] was 1320 nM, the Tmax [20] was 15 min and the half-life [21] was 46.2 min. The fraction unbound at 5 µM [9] was 0.086, the Kp uu [22] was 4.05 and the fraction unbound at 0.5 µM [10] was 0.033. For the same molecule, the Imax [11] was 53%, the IC50 [12] was 832 nM and the fAUClast [23] was 204 ng·h/mL.

From ChEMBL document CHEMBL4043296 (J Med Chem, 2018)
